Each structure is given as a SMILES string.

Among the data in a melting point compilation (Tetko et al.; mined from patent text by program, amines drawn as free bases though some values may be those of a salt) are melting point values, retold here.

By melting point is commonly meant the temperature, or range, at which the solid turns liquid. The molecule `CCOC(=O)Cc1ccc(-c2ccc(F)cc2F)c(F)c1` gave a melting point of 50 to 52 °C.

`CC(C)n1nc(-c2sc(NC(=O)c3ccc(Cn4ccnc4)cc3)nc2-c2ccccc2)ccc1=O` yielded a melting point above 250 °C.

For `CC(C)(C)NC(=O)OC1CCOC1=O` (configuration not stated), the melting point fell in the range of 104 to 106 °C.

Take `COCCc1sc2ncnc(N)c2c1-c1ccc(NC(=O)Cc2cccc(C)c2)cc1`: the melting point was 200 to 202 °C.

In the case of `COc1cc2c(cc1OC)CN(CN1CCc3cc(OC)c(OC)cc3C1)CC2`, the melting point worked out at 126 °C.

As for `O=C1CC2(CCN(Cc3ccccc3)CC2)C(=O)N1OCc1ccccc1`, the melting point was 146 to 152 °C.

For the molecule `CSCc1cn(C)c2cc(Cl)ccc2c1=O`, the melting point was in the range of 163 to 164 °C.

Take `CS(=O)(=O)OCN1C=NN(c2c(Cl)cc(C(F)(F)F)cc2Cl)C1`: the melting point lay in the range of 96 to 97 °C.

Consider `CCOC(=O)C1CCc2c(n(C(=O)c3ccc(Cl)cc3)c3ccc(Cl)cc23)C1` (configuration not stated), for which the melting point fell in the range of 129 to 132 °C.

Regarding `CN1c2ccc(Cl)cc2C(c2ccccc2Br)=Nc2cccnc21`, the melting point is 121 to 123 °C.

`CCC1CCN(Cc2ccc(COc3cccc4c3CN(C3CCC(=O)NC3=O)C4=O)cc2)CC1` (configuration not stated) returned a melting point of 180 to 182 °C.

In the case of `CN(Cc1ccccc1)C1c2ccccc2CCCC1O` (configuration not stated), the melting point is 70 °C.

Regarding `CC(=O)N(C)c1nc(CN2CCN(C(c3ccccc3)c3ccccc3)CC2)cs1`, the melting point was 140 to 142 °C.

`CC(C)(CNC(=O)COCC(=O)O)SN=O`: the melting point is 81 to 83 °C.

For the molecule `COc1ccc2nccc(CCC[C@@H]3CCN(CC#Cc4ccccc4)C[C@@H]3C(=O)O)c2c1`, the melting point was 166 °C.

Molecule `Oc1ncnc2nc(CC3CCN(CC4COc5ccccc5O4)CC3)n(Cc3ccc(F)cc3)c12` (configuration not stated) returned a melting point of 175 °C.

Turning to `O=c1ccc(-c2c(-c3ccccc3)nn3ccccc23)nn1C1CCCCC1`, the melting point lay in the range of 115 to 117 °C.

Molecule `Oc1ccc2c(c1)CCCC(c1ccccc1)=C2c1ccc(OCCCCCSCc2ccc(C(F)(F)F)cc2)cc1` came in with a melting point of 147 °C.

`CCCN(CCC)c1nc2ccccc2n2cnnc12` had a melting point of 240 to 242 °C.

The molecule `O=C1NC(=O)C(Cc2ccc(OCCON=Cc3ccc(-c4ccccc4)nc3)cc2)S1` (configuration not stated) showed a melting point of 102 to 104 °C.

For the molecule `CNC(=O)C(C)Nc1nc(-c2ccc(F)c3ccccc23)cc(C(C)C)n1` (configuration not stated), the melting point lay within 141 to 142 °C.

Turning to `Cc1nc(C)c(CO)c(-c2ccc(F)cc2)n1`, the melting point is 174 to 176 °C.

Consider `CC(C)(C)OC(=O)NN[C@@H]1c2cc(C#N)ccc2OC(C)(C)[C@H]1O` (relative stereo), for which the melting point was in the range of 136 to 138 °C.

`O=[N+]([O-])c1ccccc1OCC(O)CO` (configuration not stated) gave a melting point of 96 °C.

`CCCOc1ccc(C(=O)CBr)cc1` registered a melting point of 36 to 38 °C.

For `COc1cc(OC)c(-c2cccs2)cc1/C=C/C(=O)c1ccc(S(=O)(=O)Nc2cc(C)on2)cc1`, the melting point lay in the range of 202 to 203 °C.

As for `CCOC(=O)[C@H](Cc1ccc(-c2c(OC)cc(CO)cc2OC)cc1)NC(=O)c1c(Cl)cccc1Cl`, the melting point was 121 °C.

On to `Clc1ccc(Oc2cncc(Cl)n2)cc1`, for which the melting point is 92 to 93 °C.

In the case of `CC(C)(C)c1ncc(Nc2ncc(-c3ccc4ccncc4c3)c3ccccc23)cn1`, the melting point was in the range of 231 to 232 °C.

The molecule `COC(=O)C1=Cc2cc(-c3ccc(OCCOC(C)C)cc3)ccc2N(C=O)CC1` had a melting point of 107 to 108 °C.

In turn, `COC(=O)c1ccc(COc2cc(F)ccc2N)c(F)c1` returned a melting point of 92 to 95 °C.

`Cc1ccc(CCN(C)CCCCCC2Cc3cc(O)ccc3C3C(F)CC4(C)C(O)CCC4C23)cc1` (configuration not stated) had a melting point of 142 to 143 °C.

Regarding `CC1(C)Oc2ccc(C#N)cc2[C@H](N(Cc2ccco2)c2ncco2)[C@H]1O`, the melting point came out at 63 °C.

In turn, `CCOC(=O)Cc1ccc(NC(=O)C(COc2ccccc2)NS(=O)(=O)c2ccc(Br)cc2)cc1` (racemic) registered a melting point of 150 to 153 °C.

Turning to `N#Cc1cc(NC(=O)c2csc3c2CCCC3)ccc1N1CCC(O)CC1`, the melting point lay within 172 to 173 °C.

`CCC(C)(O)CCCCc1cccc(CCc2ccc(O)c(CO)c2)c1` (configuration not stated) registered a melting point of 101 to 104 °C.

As for `COc1cc2nc(COc3ccc(CC4SC(=O)NC4=O)cc3)n(C)c(=O)c2cc1OC` (configuration not stated), the melting point was 252 °C.

For the molecule `CCCCOc1ccc(-c2ncc(C#N)c(Cl)n2)cc1`, the melting point turned out to be 170 °C.

In turn, `CC(=O)CCSc1cc(C(C)(C)C)c(O)c(C(C)(C)C)c1` yielded a melting point of 79 to 81 °C.

On to `CN(Cc1ccccc1)C1(C#N)CCN(Cc2ccccc2)CC1`, for which the melting point lay in the range of 67 to 68 °C.

On to `CC(=O)c1cc(Cl)ccc1Nc1ccc(OCc2ccccc2)cc1`, for which the melting point fell in the range of 74 to 75 °C.

As for `CCOC(=O)CCNC(=O)CN1CC(=O)N(C)c2ccc(NC(=O)NCc3ccccc3)cc2C1=O`, the melting point lay within 100 to 102 °C.

`COc1ccc(-c2cnc(N3CCc4c([nH]c5ccccc45)C3C3Cc4ccccc4O3)nc2)cc1` (configuration not stated) gave a melting point of 242 to 243 °C.

Take `COC(=O)c1ccc(F)c2c1OCC=C2`: the melting point fell in the range of 65 to 67 °C.

Turning to `O=c1ccn(-c2ccccc2OC(F)F)nc1-c1ccnn1-c1ccccc1`, the melting point was 123 to 124 °C.

Turning to `CC(=O)OC(C)C=C(C)c1ccc(-c2ccccc2)cc1` (configuration not stated), the melting point lay within 62 to 64 °C.

The molecule `O=C(c1cc([N+](=O)[O-])ccc1Nc1ccncc1)N1CCCCC1` registered a melting point of 194 to 196 °C.

`CC(c1ccccc1N1CCCCC1)C(C(N)=O)c1ccc(C(=O)N2CCOCC2)cc1` (configuration not stated) had a melting point of 148 to 150 °C.

On to `Cc1cc(=O)[nH]c(SCc2ccccn2)n1`, for which the melting point lay within 154 to 156 °C.

In the case of `O=C(O)c1ccc(CCCC2SCC(=O)N2CCCC2(O)CCCCC2)cc1` (configuration not stated), the melting point is 118 to 121 °C.

`CC(C)(C)OC(=O)N1CCC(C(=O)N2CCc3ccc4[nH]c(=O)c(=O)[nH]c4c3C2)CC1` displayed a melting point of 283 to 286 °C.

For `CC1(C)OC(=O)Nc2ccc(-c3ccc(S(N)(=O)=O)s3)cc21`, the melting point was 258 to 260 °C.

`O=c1[nH]c2cc(C(F)(F)F)ccc2n(CCn2ncnn2)c1=O`: the melting point was found to be 280 °C.

As for `CCNC(=O)c1c([Si](C)(C)C)ccc(SC)c1Cl`, the melting point is 137 to 139 °C.

`Cc1oc(-c2ccccc2)nc1CCOc1ccc(Cn2cc(CC(=O)O)c(-c3ccccc3)n2)cn1` had a melting point of 148 to 149 °C.

`CCCCCCCCc1cc2c(cc1/C(C)=C/c1ccc(C(=O)O)cc1)C(C)(C)CCS2(=O)=O` yielded a melting point of 176 to 178 °C.

As to `COC(=O)c1ccc(CCCOCCCCCCNCC(O)c2ccc(O)c(CO)c2)cc1` (configuration not stated), the melting point lay in the range of 43 to 45 °C.

`N#Cc1ccc(NC2CCCCC2)c([N+](=O)[O-])c1` had a melting point of 109 °C.

With `COc1ccc(C(=O)Nc2ccc3ccc(OCC(=O)N(C)C)nc3n2)cc1`, the melting point was found to be 165 °C.

As for `c1ccc(-c2nc(-c3ccc4c(c3)OCO4)sc2-c2ccccc2)cc1`, the melting point is 121 to 124 °C.

As to `NC(=O)c1nc(-c2ccccn2)n2c1CN=C(c1ccccc1Cl)c1cc(Cl)ccc1-2`, the melting point lay in the range of 255 to 257 °C.

Molecule `O=C(O)C1CCCC2c3ccccc3CC12` (configuration not stated) gave a melting point of 138 to 139 °C.
